Assay results reported in patent publication US20180207177A1, “TREATMENT OF TRIPLE NEGATIVE BREAST CANCER UTILIZING ANDROST-5-ENE-3b,17b-DIOL (b-AED), ANDROST-5-ENE-3b,7b,17b-TRIOL (b-AET) AND ESTRADIOL (E2)” (Government of the United States as Represented by the …, priority 2017, published 2018).

Experiments:
[1] = test system: MDA-MB-231 breast cancer cell; assay: Cell death in MDA-MB-231 breast cancer cell cultures; type: cell-based; conditions: 25 μM β-AED, 25 μM β-AET, 5 nM E2; PEG 300/LIPOFECTAMINE vehicle
Description: (§1) Hormone dependent, noninvasive, epithelial phenotype (ER/PR positive MCF-7 breast cancer cells) and hormone independent, invasive, mesenchymal phenotype (ER/PR negative MDA-MB-231 breast cancer cell) cell suspensions were acquired and prepared in complete medium (DMEM/F12, 10% FBS, 1% penicillin/streptomycin (Gibco)). Cellular concentration was adjusted to 2×10^5 cells/mL.
(§2) Androstene hormone solutions according to embodiments of the present invention were prepared from a first solution and a second solution. For the first solution, 3.0 mg of β-AED or β-AET was added to warm PEG 300 to prepare 50 mM stock. For the second solution, 10 μL of LIPOFECTAMINE (3:1 DOSPA:DOPE) was introduced to 100 μL of PEG 300, mixed, and incubated in a water bath at 42° C. for 30 min. The first and second solutions were then mixed in a sonicator water bath at 42° C. for 1 hr. The final concentration was 50 mM β-AED (or AET, as used).
(§3) A β-estradiol solution was also prepared by adding 2.7 mg of β-estradiol to 200 μL warmed PEG 300 with LIPOFECTAMINE and then further diluted 1:1000 with PEG-300. The final concentration was 50 μM.
A diluted β-AED (or β-AET) solution was prepared with complete medium at a final concentration of 50 μM (1:1000 dilute of 50 mM). Likewise, a diluted β-E2 solution was prepared with complete medium at a final concentration of 10 nM (1:5000 dilute of 50 μM). […]

[2] = test system: MCF-7 breast cancer cells; assay: Cell death and growth in MCF-7 breast cancer cell cultures; type: cell-based; conditions: for MCF7 Cell Death Amount: 25 μM β-AED, 25 μM β-AET, PEG 300/LIPOFECTAMINE vehicle; for cell growth / cell density (microscopic photograph): compared to vehicle FIG. 14
Description: as §1, §2, §3
A diluted β-AED (or β-AET) solution was prepared with complete medium at a final concentration of 50 μM (1:1000 dilute of 50 mM). Likewise, a diluted β-E2 solution was prepared with complete medium at a final concentration of 10 nM (1:5000 dilute of 50 μM).
Using a 24-well plate, mixtures of 0.5 mL of cells per well with 0.5 mL of medium diluted hormone vehicle. Cell cultures were maintained at 90% humidity, 7% CO2, and 37° C.

293T cells = assay: Biological function (phenotype, mobile cells) in 293T cells; type: cell-based, human
Description: A non-toxic vehicle for administration of androstene hormones according to embodiments of the present invention was prepared from a first solution and a second solution. The first solution, comprising liposomal formulation, was placed in PEG 300 to a concentration of 5% and heated in a sonicating water bath to about 45° C. The second solution, comprising a selected hormone (one or more of 5Δ-androsten-3β, 17α-diol, 5Δ-androsten-3β, 17β-diol, or 5Δ-androsten-3β,7β,17β-triol), was placed in PEG 300 and heated in a sonicating water bath to about 45° C. The first and second solutions were then combine and stirred until dissolved.
Biological function was tested in 293T cells, which is a human embryonic cell line transformed with Large T antigen […] SV40. This hypotriploid (polyploid) cell line is particularly useful in such transformation studies and has very distinct phenotypes when grown. All androstene hormone treatment applications were at concentrations of 25 μM.

[3] = MCF-7 grown for 5 days, 25 μM androstene, 5 nM E2
[4] = vehicle PEG 300, androstene hormone 25 μM

Row | Structure (SMILES) | MDA-MB-231 Cell Death Amount [1] | MCF7 Cell Death Amount ([2]; 5 nM E2) | cell growth / cell density (microscopic photograph) [2, 3] | cell islands (photograph) (293T cells; [4]) | mobile cells / cell processes (photograph) (293T cells; [4]) | mobile cells / mobile elements and processes (photograph) (293T cells; vehicle PEG 300 and LIPOFECTAMINE, β-AED 25 μM, E2 5 nM) | particles / cell bodies produced by cells in response to treatment [2, 3] | Additional Observation ([2]; cell line not given, particles shown for MCF-7 in FIG. 15)
1 | C[C@]12CC[C@H]3[C@@H]([C@@H](O)C=C4C[C@@H](O)CC[C@@]43C)[C@@H]1CC[C@@H]2O [β-AET, 5-androstene-3β,7β,17β-triol] | Not observed | Not observed | thick and similar to the cell growth of FIG. 14 |  |  |  |  | 
2 | C[C@]12CC[C@H]3[C@@H](CC=C4C[C@@H](O)CC[C@@]43C)[C@@H]1CC[C@@H]2O [β-AED, androst-5-ene-3β,17β-diol] | Not observed | Not observed | not as heath and there are areas of decreased density | cell islands are larger | significant reduction in mobile cells | drastic decrease in, or morphological change, in mobile elements | small particles | Cell particles observed
